Laboratory results taken from the NIST ThermoML archive (doi:10.1021/je700265d).
Several values for one entry are separate records, joined by “and”; a condition that tells them apart may be missing. Equal entries are not always repeated. ± gives the expanded uncertainty stated by the source.

Test: mn = molality of the nth substance listed, in mol/kg
Conditions: Liquid, Vibrating tube method

[Na+].[OH-] [sodium hydroxide] + O
mass density
Conditions | 2000 kPa | 10000 kPa
323.15 K, m1 = 0.09892 | 993.08 ± 2 kg/m3 [middle of 4 runs] | –
323.15 K, m1 = 0.1004 | – | 996.538 ± 2 kg/m3 and 996.527 ± 2 kg/m3
323.15 K, m1 = 0.1011 | – | 996.561 ± 2 kg/m3 and 996.552 ± 2 kg/m3
323.15 K, m1 = 0.1999 | 997.265 ± 2 kg/m3 | –
323.15 K, m1 = 0.2008 | – | 1000.68 ± 2 kg/m3 and 1000.69 ± 2 kg/m3
323.15 K, m1 = 0.4993 | – | 1012.82 ± 2 kg/m3
323.15 K, m1 = 0.4998 | 1009.52 ± 2 kg/m3 and 1009.53 ± 2 kg/m3 | –
323.15 K, m1 = 1.002 | – | 1032.59 ± 2.1 kg/m3
323.15 K, m1 = 1.006 | 1029.58 ± 2.1 kg/m3 and 1029.59 ± 2.1 kg/m3 | –
323.15 K, m1 = 1.998 | – | 1069.82 ± 2.2 kg/m3
323.15 K, m1 = 2.006 | 1067.14 ± 2.2 kg/m3 | –
323.15 K, m1 = 2.994 | 1102.23 ± 2.2 kg/m3 and 1102.25 ± 2.2 kg/m3 | –
323.15 K, m1 = 2.999 | – | 1104.9 ± 2.3 kg/m3
323.15 K, m1 = 4 | 1135.56 ± 2.3 kg/m3 and 1135.59 ± 2.3 kg/m3 | 1137.82 ± 2.3 kg/m3
323.15 K, m1 = 4.927 | 1164.37 ± 2.4 kg/m3 and 1164.36 ± 2.4 kg/m3 | –
323.15 K, m1 = 5.002 | – | 1168.71 ± 2.4 kg/m3
323.15 K, m1 = 5.963 | 1194.98 ± 2.5 kg/m3 | –
323.15 K, m1 = 5.984 | – | 1197.21 ± 2.5 kg/m3
323.15 K, m1 = 6.887 | 1219.57 ± 2.5 kg/m3 | –
323.15 K, m1 = 6.998 | – | 1224.73 ± 2.6 kg/m3
323.15 K, m1 = 8 | 1248.12 ± 2.6 kg/m3 | –
323.15 K, m1 = 8.191 | – | 1254.93 ± 2.7 kg/m3
373.15 K, m1 = 0.1071 | – | 967.434 ± 1.9 kg/m3 and 967.432 ± 1.9 kg/m3
373.15 K, m1 = 0.2063 | – | 971.522 ± 2 kg/m3
373.15 K, m1 = 0.5006 | – | 983.362 ± 2 kg/m3
373.15 K, m1 = 1.007 | – | 1003.1 ± 2 kg/m3
373.15 K, m1 = 1.998 | – | 1039.6 ± 2.1 kg/m3
373.15 K, m1 = 3 | – | 1074.35 ± 2.2 kg/m3
373.15 K, m1 = 3.968 | – | 1105.88 ± 2.3 kg/m3
373.15 K, m1 = 4.987 | – | 1137.02 ± 2.3 kg/m3
373.15 K, m1 = 5.995 | – | 1165.76 ± 2.4 kg/m3
373.15 K, m1 = 7 | – | 1192.66 ± 2.5 kg/m3 and 1192.78 ± 2.5 kg/m3
373.15 K, m1 = 8.191 | – | 1222.53 ± 2.6 kg/m3
423.15 K, m1 = 0.102 | – | 926.887 ± 1.9 kg/m3 and 926.893 ± 1.9 kg/m3
423.15 K, m1 = 0.2019 | – | 931.217 ± 1.9 kg/m3
423.15 K, m1 = 0.4993 | – | 943.749 ± 1.9 kg/m3
423.15 K, m1 = 1.004 | – | 964.154 ± 1.9 kg/m3
423.15 K, m1 = 2.002 | – | 1002.15 ± 2 kg/m3
423.15 K, m1 = 3.005 | – | 1037.71 ± 2.1 kg/m3
423.15 K, m1 = 4.007 | – | 1070.87 ± 2.2 kg/m3
423.15 K, m1 = 5.013 | – | 1101.94 ± 2.3 kg/m3 and 1102 ± 2.3 kg/m3
423.15 K, m1 = 5.983 | – | 1129.99 ± 2.3 kg/m3
423.15 K, m1 = 6.994 | – | 1157.33 ± 2.4 kg/m3
423.15 K, m1 = 7.997 | – | 1182.78 ± 2.5 kg/m3
473.15 K, m1 = 0.1008 | – | 875.988 ± 1.8 kg/m3 and 876.005 ± 1.8 kg/m3 and 876.003 ± 1.8 kg/m3
473.15 K, m1 = 0.1998 | – | 880.725 ± 1.8 kg/m3
473.15 K, m1 = 0.498 | – | 894.456 ± 1.8 kg/m3 and 894.426 ± 1.8 kg/m3
473.15 K, m1 = 1 | – | 916.262 ± 1.9 kg/m3
473.15 K, m1 = 1.996 | – | 956.424 ± 1.9 kg/m3 and 956.451 ± 1.9 kg/m3
473.15 K, m1 = 3.001 | – | 993.727 ± 2 kg/m3
473.15 K, m1 = 3.979 | – | 1027.36 ± 2.1 kg/m3
473.15 K, m1 = 4.99 | – | 1059.7 ± 2.2 kg/m3
473.15 K, m1 = 5.981 | – | 1089.06 ± 2.2 kg/m3
473.15 K, m1 = 6.966 | – | 1116.25 ± 2.3 kg/m3 and 1116.27 ± 2.3 kg/m3
473.15 K, m1 = 7.982 | – | 1142.4 ± 2.4 kg/m3
523.15 K, m1 = 0.1 | – | 811.722 ± 1.7 kg/m3 and 811.711 ± 1.7 kg/m3
523.15 K, m1 = 0.2004 | – | 817.364 ± 1.7 kg/m3
523.15 K, m1 = 0.4995 | – | 833.124 ± 1.7 kg/m3 and 833.104 ± 1.7 kg/m3
523.15 K, m1 = 1.002 | – | 857.633 ± 1.8 kg/m3 and 857.68 ± 1.8 kg/m3
523.15 K, m1 = 2.005 | – | 902.001 ± 1.8 kg/m3
523.15 K, m1 = 3.005 | – | 942.171 ± 1.9 kg/m3
523.15 K, m1 = 3.999 | – | 977.951 ± 2 kg/m3
523.15 K, m1 = 5.003 | – | 1011.55 ± 2.1 kg/m3
523.15 K, m1 = 6.005 | – | 1042.56 ± 2.1 kg/m3 and 1042.64 ± 2.1 kg/m3
523.15 K, m1 = 7.002 | – | 1071.15 ± 2.2 kg/m3 and 1071.04 ± 2.2 kg/m3
523.15 K, m1 = 7.999 | – | 1097.71 ± 2.3 kg/m3 and 1097.55 ± 2.3 kg/m3
573.15 K, m1 = 0.1122 | – | 724.654 ± 1.5 kg/m3 and 724.632 ± 1.5 kg/m3
573.15 K, m1 = 0.2173 | – | 732.398 ± 1.5 kg/m3 and 732.406 ± 1.5 kg/m3
573.15 K, m1 = 0.5495 | – | 754.575 ± 1.6 kg/m3 and 754.588 ± 1.6 kg/m3
573.15 K, m1 = 1.105 | – | 787.201 ± 1.6 kg/m3 and 787.19 ± 1.6 kg/m3
573.15 K, m1 = 1.996 | – | 832.976 ± 1.7 kg/m3 and 833.161 ± 1.7 kg/m3
573.15 K, m1 = 3.004 | – | 878.767 ± 1.8 kg/m3
573.15 K, m1 = 3.998 | – | 918.89 ± 1.9 kg/m3
573.15 K, m1 = 4.999 | – | 955.585 ± 2 kg/m3
573.15 K, m1 = 6.004 | – | 989.12 ± 2 kg/m3
573.15 K, m1 = 6.999 | – | 1019.78 ± 2.1 kg/m3
573.15 K, m1 = 7.997 | – | 1047.99 ± 2.2 kg/m3
